Results reported in the supplement of paper PMC11061612.

What was measured:
Experiment in all cases: combination Emax (second highest fraction inhibited in the dose matrix, 72 h); higher = more inhibition; extreme values may be limits of the assay
[1] = test system: CCK-81 (Colorectal Carcinoma)
In short: (§1)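 Bliss excess equals the observed combination effect minus the expected value EA + EB − EA·EB, where EA and EB are the effects of each agent alone. Combination Emax is the second-highest inhibition within the matrix. Inhibition was scaled from CellTiter-Glo 2.0 luminescence, with 0 set by vehicle wells and 1 by blank wells, after 72 hours of two-drug dosing of cells plated in 1536-well plates.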

[2] = test system: COLO-320-HSR (Colorectal Carcinoma)
In short: as §1

[3] = test system: COLO-824 (Breast Carcinoma)
In short: as §1

[4] = test system: ECC10 (Gastric Carcinoma)
In short: as §1

GI-ME-N (Neuroblastoma) = test system: GI-ME-N (Neuroblastoma)
In short: as §1

[5] = test system: KARPAS-422 (B-Cell Non-Hodgkin's Lymphoma)
In short: as §1

LN-405 (Glioblastoma) = test system: LN-405 (Glioblastoma)
In short: as §1

[6] = test system: MDST8 (Colorectal Carcinoma)
In short: as §1

[7] = test system: NCI-H1581 (Non-Small Cell Lung Carcinoma)
In short: as §1

[8] = test system: NCI-H1650 (Lung Adenocarcinoma)
In short: as §1

[9] = test system: NCI-H1666 (Lung Adenocarcinoma)
In short: as §1

[10] = test system: NCI-H1693 (Lung Adenocarcinoma)
In short: as §1

[11] = test system: NCI-H2066 (Squamous Cell Lung Carcinoma)
In short: as §1

[12] = test system: NCI-H2141 (Small Cell Lung Carcinoma)
In short: as §1

NCI-H2591 (Mesothelioma) = test system: NCI-H2591 (Mesothelioma)
In short: as §1

[13] = test system: NCI-H64 (Small Cell Lung Carcinoma)
In short: as §1

PA-1 (Ovarian Carcinoma) = test system: PA-1 (Ovarian Carcinoma)
In short: as §1

[14] = test system: SK-MES-1 (Squamous Cell Lung Carcinoma)
In short: as §1

[15] = test system: SK-MG-1 (Low Grade Glioma)
In short: as §1

U-2-OS (Osteosarcoma) = test system: U-2-OS (Osteosarcoma)
In short: as §1

Structure (SMILES)	combination Emax [1]	combination Emax [2]	combination Emax [3]	combination Emax [4]	combination Emax (GI-ME-N (Neuroblastoma))	combination Emax [5]	combination Emax (LN-405 (Glioblastoma))	combination Emax [6]	combination Emax [7]	combination Emax [8]	combination Emax [9]	combination Emax [10]	combination Emax [11]	combination Emax [12]	combination Emax (NCI-H2591 (Mesothelioma))	combination Emax [13]	combination Emax (PA-1 (Ovarian Carcinoma))	combination Emax [14]	combination Emax [15]	combination Emax (U-2-OS (Osteosarcoma))
COc1cccc(OCCCN)c1-c1cc(Nc2cnc(C#N)cn2)n[nH]1 [Prexasertib] + CCc1c2c(nc3ccc(O)cc13)-c1cc3c(c(=O)n1C2)COC(=O)[C@]3(O)CC [SN-38] (first compound max 1 µM, 7x7, partner max 0.3 µM)	0.835	0.838	1	1	0.529	1	0.669	0.94	0.897	0.778	0.643	0.925	0.5	0.881	0.791	0.95	0.91	0.953	0.982	0.871
COc1cccc(OCCCN)c1-c1cc(Nc2cnc(C#N)cn2)n[nH]1 [Prexasertib] + CN(C)CCCOc1ccc(-c2ccc3ncc4c(c3c2)n(C2CCOCC2)c(=O)n4C)cn1 [AZD0156] (first compound max 1 µM, 7x7, partner max 1 µM)	0.927	0.691	0.785	0.671	0.529	0.904	0.516	0.957	0.284	0.51	0.35	0.398	0.402	0.568	0.305	0.787	0.725	0.77	0.843	0.943
COc1cccc(OCCCN)c1-c1cc(Nc2cnc(C#N)cn2)n[nH]1 [Prexasertib] + C[C@@H]1COCCN1C2=NC(=NC(=C2)C3(CC3)[S@](=N)(=O)C)C4=C5C=CNC5=NC=C4 [AZD6738] (first compound max 1 µM, 7x7, partner max 10 µM)	0.929	0.726	0.796	0.712	0.563	0.88	0.553	0.943	0.566	0.519	0.463	0.389	0.454	0.573	0.519	0.835	0.778	0.842	0.802	0.894
COc1cccc(OCCCN)c1-c1cc(Nc2cnc(C#N)cn2)n[nH]1 [Prexasertib] + Cc1cc2ncnn2cc1Nc1ncc2c(n1)n(C1CCOCC1)c(=O)n2C [AZD7648] (first compound max 1 µM, 7x7, partner max 10 µM)	0.903	0.669	0.783	0.671	0.563	0.908	0.445	0.943	0.418	0.55	0.334	0.483	0.437	0.57	0.415	0.846	0.734	0.804	0.826	0.913
COc1cccc(OCCCN)c1-c1cc(Nc2cnc(C#N)cn2)n[nH]1 [Prexasertib] + O=C(c1cc(Cc2n[nH]c(=O)c3ccccc23)ccc1F)N1CCN(C(=O)C2CC2)CC1 [Olaparib] (first compound max 1 µM, 7x7, partner max 10 µM)	0.841	0.522	0.77	0.728	0.452	0.92	0.592	0.937	0.563	0.494	0.26	0.357	0.316	0.617	0.21	0.835	0.706	0.834	0.904	0.908
COc1cc2c(cc1OCCCCCOc1cc3c(cc1OC)C(=O)N1C=C(C)C[C@H]1C=N3)N=C[C@@H]1CC(C)=CN1C2=O [SG3199] + O=C(c1cc(Cc2n[nH]c(=O)c3ccccc23)ccc1F)N1CCN(C(=O)C2CC2)CC1 [Olaparib] (first compound max 0.001 µM, 7x7, partner max 10 µM)	0.184	0.061	0.147	0.102	0.161	0.258	0.301	0.138	0.136	0.0953	0.0849	0.086	0.108	0.197	0.118	0.0693	0.324	0.103	0.168	0.0914
CCc1c2c(nc3ccc(O)cc13)-c1cc3c(c(=O)n1C2)COC(=O)[C@]3(O)CC [SN-38] + CN(C)CCCOc1ccc(-c2ccc3ncc4c(c3c2)n(C2CCOCC2)c(=O)n4C)cn1 [AZD0156] (first compound max 0.3 µM, 7x7, partner max 1 µM)	0.673	0.284	0.509	0.945	0.345	0.937	0.259	0.802	0.785	0.501	0.626	0.474	0.154	0.451	0.65	0.407	0.845	0.804	0.833	0.0889
C[C@@H](c1ccc2nccn2c1)n1nnc2ncc(-c3cnn(C)c3)nc21 [Savolitinib] + CC1(C)CCC(CN2CCN(c3ccc(C(=O)NS(=O)(=O)c4ccc(NCC5CCOCC5)c([N+](=O)[O-])c4)c(Oc4cnc5[nH]ccc5c4)c3)CC2)=C(c2ccc(Cl)cc2)C1 [Venetoclax] (first compound max 1 µM, 7x7, partner max 1 µM)	0.1	0.213	0.61	0.5	0.17	0.257	0.173	0.176	0.135	0.127	0.152	0.0814	0.195	0.198	0.15	0.23	0.276	0.0772	0.11	0.125
C[C@@H](c1ccc2nccn2c1)n1nnc2ncc(-c3cnn(C)c3)nc21 [Savolitinib] + Cc1c2c(nn1C)CSCc1cc(n(C)n1)CSc1cc(c3ccccc3c1)OCCCc1c(C(=O)O)n(C)c3c-2c(Cl)ccc13 [AZD5991] (first compound max 1 µM, 7x7, partner max 1 µM)	0.678	0.779	0.356	0.503	0.245	0.961	0.256	0.159	0.951	0.132	0.178	0.108	0.169	0.234	0.216	0.0956	0.885	0.228	0.124	0.18
Cn1cnc2c(F)c(Nc3ccc(Br)cc3Cl)c(C(=O)NOCCO)cc21 [Selumetinib] + C=CCn1c(=O)c2cnc(Nc3ccc(N4CCN(C)CC4)cc3)nc2n1-c1cccc(C(C)(C)O)n1 [AZD1775] (first compound max 10 µM, partner max 1 µM)	0.885	0.589	0.76	0.774	0.209	0.623	0.148	0.609	0.639	0.34	0.538	0.428	0.351	0.547	0.309	0.858	0.875	0.631	0.449	0.699
Cn1cnc2c(F)c(Nc3ccc(Br)cc3Cl)c(C(=O)NOCCO)cc21 [Selumetinib] + CC(C)n1c(=O)n(C)c2cnc3cc(F)c(-c4ccc(OCCCN5CCCCC5)nc4)cc3c21 [AZD1390] (first compound max 10 µM, 7x7, partner max 0.3 µM)	0.379	0.181	0.302	0.202	0.178	0.123	0.129	0.537	0.455	0.132	0.529	0.204	0.254	0.0858	0.199	0.105	0.276	0.464	0.185	0.577
Cn1cnc2c(F)c(Nc3ccc(Br)cc3Cl)c(C(=O)NOCCO)cc21 [Selumetinib] + CCN(CCO)CCCOc1ccc2c(Nc3cc(CC(=O)Nc4cccc(F)c4)[nH]n3)ncnc2c1 [AZD2811] (first compound max 10 µM, 7x7, partner max 1 µM)	0.372	0.249	0.825	0.841	0.213	0.263	0.242	0.63	0.487	0.213	0.506	0.286	0.286	0.167	0.29	0.516	0.654	0.511	0.288	0.661
Cn1cnc2c(F)c(Nc3ccc(Br)cc3Cl)c(C(=O)NOCCO)cc21 [Selumetinib] + C[C@@H]1COCCN1C2=NC(=NC(=C2)C3(CC3)[S@](=N)(=O)C)C4=C5C=CNC5=NC=C4 [AZD6738] (first compound max 10 µM, 7x7, partner max 10 µM)	0.923	0.371	0.718	0.443	0.312	0.519	0.405	0.784	0.545	0.333	0.516	0.364	0.43	0.409	0.339	0.808	0.855	0.687	0.387	0.624
